According to US12264170B2, “Antimicrobial organosilanes” (TOPIKOS SCIENTIFIC, INC., priority 2019, dated 2025):
Values after ≈ are worked out from the molar mass of the structure shown. Where two headings read alike, the source gives them in different places.

Assays:
[1] = system: Staphylococcus aureus ATCC 33591; assay: MIC microdilution assay; type: cell-based; conditions: Staphylococcus aureus, ATCC33591; S. aureus ATCC 33591; CAMHB; 35±2° C. 18 to 20 hours; two values given; read-out: MIC
Experimental: (§1) Strain numbers starting with “ATCC” were acquired from the American Type Culture Collection (Manassas, VA), while strain numbers starting with “CDC” were acquired from the Centers for Disease Control and Prevention (Atlanta, GA). All strains were maintained as −80° C. frozen glycerol stocks. S. aureus and P. aeruginosa were grown overnight on Tryptic Soy Agar (TSA) plates at 35±2° C., ambient atmosphere, while S. pyogenes was grown overnight on TSA+5% defibrinated sheep blood at 35±2° C., 5% CO2. All fungal species (i.e. C. albicans, C. auris and C. herbarum) were grown on Sabouraud Dextrose Agar (SDA) plates. C. herbarum was grown at 25±2° C. for 5 to 7 days, while all other fungal strains were grown at 35±2° C. overnight.
(§2) Test articles Compound 2 (batch #2G13A0.368) and Compound 23 (batch #2G17A0.372) were received and stored at 4° C. The antibiotic Tobramycin and antifungal Amphotericin B were used as quality control (QC) compounds for the MIC assay. Stock solutions of 3.2 mg/mL Tobramycin (Sigma-Aldrich, cat #T1783-500MG) and 3.2 mg/mL Amphotericin B (CP Lab Chemicals, cat #TOK-A007-1G) were prepared in sterile ultrapure water.
(§3) For bacteria strains, a few colonies of each strain were collected with a sterile swab and used to make a McFarland 0.5 standard solution (approximately 1×10^8 CFU/mL) in sterile PBS. The McFarland was then diluted 1:180 in Cation Adjusted Muller-Hinton Broth (CAMHB) for S. aureus and P. aeruginosa, and in […]+5% defibrinated sheep blood for S. pyogenes. 90 μL of this inoculum was combined with 10 μL of the 10× test article in a 96-well plate for a final concentration of 1×.
(§4) All bacterial-strain MIC 96-well plates were incubated at 35±2° C. for 18 to 20 hours, while all Candida MIC 96-well plates were incubated at 35±2° C. for 24 to 48 hours. C. herbarum MIC 96-well plates were incubated at 25±2° C. for 3 to 5 days, until growth was visible in the growth control wells. After incubation, the 96-well plates were examined visually and on a spectrophotometer at absorbance OD650. […]

S. pyogenes ATCC 51339 = assay: MIC microdilution assay; type: cell-based, Steptococcus pyogenes; conditions: broth +5% defibrinated sheep blood, 35±2° C. 18 to 20 hours, two values given
Experimental: as §1, §2, §3, §4

[2] = system: Cladosporium herbarum ATCC MYA-4682; assay: MIC microdilution assay; type: cell-based; conditions: Cladosporium herbarum; C. herbarum ATCC MYA-4682; RPMI media; 25±2° C. 3 to 5 days; two values given; read-out: MIC
Experimental: as §1
Test articles Compound 2 (batch #2G13A0.368) and Compound 23 (batch #2G17A0.372) were received and stored at 4° C. The antibiotic Tobramycin and antifungal Amphotericin B were used as quality control (QC) compounds for the MIC assay. […]
All bacterial-strain MIC 96-well plates were incubated at 35±2° C. for 18 to 20 hours, while all Candida MIC 96-well plates were incubated at 35±2° C. for 24 to 48 hours. […] After incubation, the 96-well plates were examined visually and on a spectrophotometer at absorbance OD650. […]

[3] = system: Campylobacter jejuni CDC 0413; assay: MIC microdilution assay (Example 32); type: cell-based; conditions: Campylobacter jejuni, CDC0413; C. jejuni CDC 0413; CAMHB+5% laked horse blood; 35±2° C. 48 hours, microaerophilic; two values given; read-out: MIC
[4] = system: Pseudomonas aeruginosa CDC 0248; assay: MIC microdilution assay (Example 32); type: cell-based; conditions: Pseudomonas aeruginosa, CDC0248; P. aeruginosa CDC 0248; CAMHB; 35±2° C. 18 to 20 hours; two values given; read-out: MIC
[5] = system: Pseudomonas aeruginosa Eurofins 1674623; assay: MIC microdilution assay (Example 32); type: cell-based; conditions: Pseudomonas aeruginosa; P. aeruginosa Eurofins 1674623; CAMHB; 35±2° C. 18 to 20 hours; two values given; read-out: MIC
[6] = system: Streptococcus pyogenes Eurofins 2065755; assay: MIC microdilution assay (Example 32); type: cell-based; conditions: Streptococcus pyogenes; S. pyogenes Eurofins 2065755; CAMHB+5% defibrinated sheep blood; 35±2° C. 18 to 20 hours; two values given; read-out: MIC

MIC [1]: > 32 µg/mL | MIC (S. pyogenes ATCC 51339; S. pyogenes ATCC 51339): 32 µg/mL (≈ 68.4 µM) | MIC (S. pyogenes ATCC 51339; Streptococcus pyogenes, ATCC51339, S. pyogenes ATCC 51339, read-out: MIC): 16 µg/mL (≈ 34.2 µM) | MIC [2]: > 32 µg/mL | MIC [3]: > 32 µg/mL | MIC [4]: > 32 µg/mL | MIC [5]: > 32 µg/mL | MIC [6]: 16 µg/mL (≈ 34.2 µM)
Structure (SMILES): NC[C@H]1O[C@H](O[C@H]2[C@H](O)[C@@H](O[C@H]3O[C@H](CO)[C@@H](O)[C@H](N)[C@H]3O)[C@H](N)C[C@@H]2N)[C@H](N)C[C@@H]1O [Tobramycin]
